From patent US20200095241A1, “SUBSTITUTED 1,2,4-THIADIAZOLYLPYRROLONES AND 1,2,4-THIADIAZOLYLHYDANTOINS AND SALTS THEREOF AND USE THEREOF AS HERBICIDES” (Bayer CropScience Aktiengesellschaft, priority 2016, published 2020) come the findings set out here.

One test relates to Matricaria inodora. Briefly: Pre-emergence herbicidal action. The following applies: 1280 g/ha, after about 3 weeks. In kind it is in vivo. The text has this: (§1) Seeds of monocotyledonous and dicotyledonous weed plants and crop plants were placed in plastic or organic planting pots and covered with soil. The compounds of the invention, formulated in the form of wettable powders (WP) or as emulsion concentrates (EC), were then applied onto the surface of the covering soil as aqueous suspension or emulsion with addition of 0.5% additive at a water application rate of 600 l/ha (converted). After the treatment, the pots were placed in a greenhouse and kept under good growth conditions for the test plants. After about 3 weeks, the effect of the preparations was scored visually in comparison with untreated controls as percentages. For example, 100% activity=the plants have died, 0% activity=like control plants. Tables B1 to B15 below show the effects of selected compounds of the general formula (I) according to Tables I.1 to I.44 on various harmful plants and an application rate corresponding to 1280 g/ha or 320 g/ha, which were obtained by the experimental procedure mentioned above.

Test [1] deals with Stellaria media. Nature of the test: Pre-emergence herbicidal action. In kind it is in vivo. The following applies: after about 3 weeks.
Excerpt: as §1

For test [2], the system named is Viola tricolor. Briefly: Pre-emergence herbicidal action. In kind it is in vivo. The following applies: Viola tricolor, 504 h, 320 g/ha, after about 3 weeks, read-out: Viola tricolor, herbicidal effect scored visually.
Excerpt: as §1

The target in a further test is T1, photosystem II (PS II) (Spinacia oleracea, UniProt P69560).
T1 construct: the chloroplasts were osmotically ruptured and the thylakoid membranes were then obtained by centrifugation; from tissue; host or cells: fresh spinach leaves; thylakoid membranes isolated from chloroplasts
Nature of the test: Measurement of the PS II activity in thylakoid membranes (DCPIP reduction). The following applies: 100 μM test compound, spinach thylakoid membranes, DCPIP 120 μM, 10 min at 22° C. with exposure to light; for inhibition at 100 µM (stock): read-out: Effect (inhibition of PS II activity). In kind it is biochemical. As for the experimental part: Cooled fresh spinach leaves were comminuted and homogenized in 50 mM phosphate buffer, pH 6.8. 10 mM KCl, 0.34 M sucrose (sucrose buffer) (blender, 1 g of plant material/ml). The homogenate was subsequently filtered through 4 layers of Miracloth and the chloroplasts were isolated by centrifugation, i.e. 10 min of centrifugation at 4400×g (4° C.). The sediment was suspended in 25 ml of sucrose buffer and re-centrifuged for 10 min at 4400×g (4° C.). The sediment was then suspended in 40 ml of 50 mM phosphate buffer, pH 6.8, 10 mM KCl, without sucrose. In this step, the chloroplasts were osmotically ruptured and the thylakoid membranes were then obtained by centrifugation (10 min, 4400×g, 4° C.). The membrane sediment was finally suspended in 20 ml of 50 mM phosphate buffer, pH 6.8, 10 mM KCl. Following protein determination and activity determination, the membrane suspension was divided into aliquots and frozen in liquid nitrogen. The aliquots were stored at −80° C. Under these conditions, the photosystem II preparation was storage stable for at least three months. The activity determination of photosystem II (PS II) was then carried out using the following test principle:
The electron transfer from PS II to an artificial electron acceptor, 2,6-dichlorophenolindophenol (DCPIP), was measured with exposure to light. The concentration of the blue oxidized form of DCPIP was determined spectrophotometrically at wavelength λ=595 nm. […] The activity determination was carried out in microtiter plates (96 cavities) in a reaction volume of 200 μl. Here, 155 μl of dilute membrane suspension were initially charged in 50 mM of phosphate buffer, pH 6.8, 10 mM KCl. Depending on the activity of the PS II preparation, the dilution was adjusted such that the measurement of the decrease in absorption (λ=595 nm) was linear for at least 10 min. In each case 5 μl solution of the test compounds of a concentration of 100 μM in DMSO were added to the enzyme suspension; controls contained 5 μl DMSO; the final concentration of DMSO in the reaction batch was thus 2.5% (v/v); this concentration had no adverse effect on the enzymatic activity. On each microtiter plate, a known PS II inhibitor, for example metribuzin, was used as standard, which allowed the quality of the PS II test to be assessed. The reaction was started by addition of 40 μl DCPIP solution (600 μM in distilled water); the final concentration of DCPIP was 120 μM. Measurement of absorption was carried out over a period of 10 min at 22° C. and with exposure to light. Using metribuzin as comparative substance, the results for the efficacy of the compounds of the general formula (I) at 100 μM are stated in the table below using the following classification: ++++ (inhibition≥90%), +++ ([…]≥70%), ++ (70%>inhibition≥50%), + (50%>inhibition≥30%).

The subject of test [3] is Stellaria media. Nature of the test: Post-emergence herbicidal action. It is filed as in vivo. Particulars: Stellaria media, 504 h, 320 g/ha, about 3 weeks after treatment, read-out: Stellaria media, herbicidal activity rated visually. As for the experimental part: (§2) Seeds of monocotyledonous and dicotyledonous weeds and crop plants were placed in sandy loam in plastic or wood-fiber pots, covered with soil and cultivated in a greenhouse under controlled growth conditions. 2 to 3 weeks after sowing, the test plants were treated at the one-leaf stage. The compounds of the invention, formulated in the form of wettable powders (WP) or as emulsion concentrates (EC), were then sprayed onto the green parts of the plants as aqueous suspension or emulsion with addition of 0.5% additive at a water application rate of 600 l/ha (converted). After the test plants had been kept in the greenhouse under optimum growth conditions for about 3 weeks, the activity of the preparations was rated visually in comparison to untreated controls. For example, 100% activity=the plants have died, 0% activity=like control plants. Tables A1 to A12 below show the effects of selected compounds of the general formula (I) according to Tables I.1 to I.44 on various harmful plants and an application rate corresponding to 1280 g/ha or 320 g/ha, which were obtained by the experimental procedure mentioned above.

Test [4] concerns Viola tricolor. Briefly: Post-emergence herbicidal action. In kind it is in vivo. The following applies: 504 h, 320 g/ha, about 3 weeks after treatment, read-out: Viola tricolor, herbicidal activity rated visually. As for the experimental part: as §2
The subject of test [5] is Setaria viridis. Nature of the test: Post-emergence herbicidal action. It is filed as in vivo. Particulars: Setaria viridis, 504 h, 320 g/ha, about 3 weeks after treatment, read-out: Setaria viridis, herbicidal activity rated visually. Here is the method:
as §2

For another test, the system named is Poa annua. Nature of the test: Pre-emergence herbicidal action. It is filed as in vivo. Particulars: 1280 g/ha, after about 3 weeks.
Excerpt: as §1

The next test deals with Abutilon theophrasti. Briefly: Post-emergence herbicidal action. It is filed as in vivo. Particulars: 320 g/ha, about 3 weeks after treatment. Here is the method: as §2
In test [6] the test system is Setaria viridis. Nature of the test: Pre-emergence herbicidal action. In kind it is in vivo. The following applies: 1280 g/ha, after about 3 weeks.
Excerpt: as §1

In general, inhibition refers to the percentage by which the read-out fell short of the control. With `CCc1nsc(N2C(=O)C(C)=C(C)C2O)n1` (stereo not shown) [I.2-3, 3,4-Dimethyl-5-hydroxy-1-(3-ethyl-1,2,4-thiadiazol-5-yl)-1,5-dihydro-2H-pyrrol-2-one], the pest or weed control at 1280 g/ha with Matricaria inodora (Tripleurospermum inodorum, 504 h, read-out: Matricaria inodora, herbicidal effect scored visually) stood at 100%. The pest or weed control at 320 g/ha with Stellaria media [1] (Stellaria media, 504 h, 320 g/ha, read-out: Stellaria media, herbicidal effect scored visually) came out at 90%; in the test with Viola tricolor [2], 100%; in the test with Stellaria media [3], 80%; in the test with Viola tricolor [4] it was 100%; in the test on Setaria viridis [5] it was 80%. Besides, the inhibition at 100 µM (stock) on photosystem II (PS II) is more than 90%.
As to `CC1=C(C)C(O)N(c2nc(-c3ccccc3)ns2)C1=O` (stereo not shown) [I.2-21], in the test on Matricaria inodora, the “Matricaria inodora, herbicidal effect scored visually” value is 90%. In addition, in the test with Stellaria media [1] (1280 g/ha), the “Stellaria media, herbicidal effect scored visually” value is given as 100%. For the same molecule, in the test with Poa annua, the “Poa annua, herbicidal effect scored visually” value was 90%. Further, the “Effect (inhibition of PS II activity)” value at photosystem II (PS II) is “+++ (90%≥inhibition≥70%)”. The “Abutilon theophrasti, herbicidal activity rated visually” value in the test with Abutilon theophrasti turned out to be 100%.
`COc1ccc(-c2nsc(N3C(=O)C(C)=C(C)C3O)n2)cc1` (stereo not shown) [I.2-83]: the “Effect (inhibition of PS II activity)” value at photosystem II (PS II) is “++++ (inhibition≥90%)”.
Consider `COCc1nsc(N2C(=O)C(C)=C(C)C2O)n1` (stereo not shown) [I.2-122, 3,4-Dimethyl-5-hydroxy-1-(3-methoxymethyl-1,2,4-thiadiazol-5-yl)-1,5-dihydro-2H-pyrrol-2-one], for which the inhibition at 100 µM (stock) at photosystem II (PS II) lay in the range of 50 to 70%.
As for `CC1=C(C)C(O)N(c2nc(C(C)(C)C)ns2)C1=O` (stereo not shown) [I.2-288], the “Matricaria inodora, herbicidal effect scored visually” value with Matricaria inodora came to 90%. In addition, the “Stellaria media, herbicidal effect scored visually” value in the test on Stellaria media [1] (1280 g/ha) came to 100%. For the same molecule, the “Poa annua, herbicidal effect scored visually” value in the test on Poa annua came to 90%. Also, the “Setaria viridis, herbicidal effect scored visually” value in the test with Setaria viridis [6] came out at 100%. The “Effect (inhibition of PS II activity)” value on photosystem II (PS II) is on record as “+++ (90%≥inhibition≥70%)”.
As for `CC1=C(C)C(O)N(c2nc(C3(C)CC3)ns2)C1=O` (stereo not shown) [I.2-335], the “Effect (inhibition of PS II activity)” value on photosystem II (PS II) was “++++ (inhibition≥90%)”.
On the same count and under the same terms, the entry for `CC1=C(C)C(O)N(c2nc(SCCOC(F)(F)C(F)(F)F)ns2)C1=O` (stereo not shown) [I.2-339] is “++++ (inhibition≥90%)”; for `CCCc1nsc(N2C(=O)C(Cl)=C(C)C2O)n1` (stereo not shown) [I.3-4] it is “++++ (inhibition≥90%)”.
The same measure, in the same setting: then `COCc1nsc(N2C(=O)C(Cl)=C(C)C2O)n1` (stereo not shown) [I.3-122], with “+++ (90%≥inhibition≥70%)”.
Regarding `CC1=C(Cl)C(=O)N(c2nc(C3(C)CC3)ns2)C1O` (stereo not shown) [I.3-335, 3-Chloro-4-methyl-5-hydroxy-1-[3-(1-methylcycloprop-1-yl)-1,2,4-thiadiazol-5-yl]-1,5-dihydro-2H-pyrrol-2-one], the inhibition at 100 µM (stock) on photosystem II (PS II) is more than 90%.
Turning to `CC1=C(Cl)C(O)N(c2nc(C)ns2)C1=O` (stereo not shown) [I.4-2], the “Effect (inhibition of PS II activity)” value at photosystem II (PS II) is given as “+++ (90%≥inhibition≥70%)”.
Same read-out and setting: then `CCc1nsc(N2C(=O)C(C)=C(Cl)C2O)n1` (stereo not shown) [I.4-3], with “++++ (inhibition≥90%)”; and `CCCc1nsc(N2C(=O)C(C)=C(Cl)C2O)n1` (stereo not shown) [I.4-4], with “++++ (inhibition≥90%)”.
For the molecule `CC1=C(Cl)C(O)N(c2nc(C3CC3)ns2)C1=O` (stereo not shown) [I.4-11, 4-chloro-3-methyl-5-hydroxy-1-(3-cyclopropyl-1,2,4-thiadiazol-5-yl)-1,5-dihydro-2H-pyrrol-2-one], the inhibition at 100 µM (stock) on photosystem II (PS II) is more than 90%.
On to `CC1=C(Cl)C(O)N(c2nc(C3(C)CC3)ns2)C1=O` (stereo not shown) [I.4-335, 4-chloro-3-methyl-5-hydroxy-1-[3-(1-methylcycloprop-1-yl)-1,2,4-thiadiazol-5-yl]-1,5-dihydro-2H-pyrrol-2-one], for which the inhibition at 100 µM (stock) on photosystem II (PS II) was in the range of 50 to 70%.
On to `COc1nsc(N2C(=O)C(C)=C(Cl)C2O)n1` (stereo not shown) [I.4-363], for which the “Effect (inhibition of PS II activity)” value at photosystem II (PS II) was “++++ (inhibition≥90%)”.
In the case of `COC(C)(C)c1nsc(N2C(=O)C(C)=C(Cl)C2O)n1` (stereo not shown) [I.4-370, 4-Chloro-3-methyl-5-hydroxy-1-[3-(2-methoxyprop-2-yl)-1,2,4-thiadiazol-5-yl]-1,5-dihydro-2H-pyrrol-2-one], the pest or weed control at 1280 g/ha in the test with Stellaria media [1] (Stellaria media, 504 h, 1280 g/ha, read-out: Stellaria media, herbicidal effect scored visually) was 100%.
Consider `CCc1nsc(N2C(=O)C(Br)=C(C)C2O)n1` (stereo not shown) [I.5-3], for which the “Effect (inhibition of PS II activity)” value at photosystem II (PS II) is listed as “++++ (inhibition≥90%)”.
The same measure, in the same setting: the entry for `CCCc1nsc(N2C(=O)C(Br)=C(C)C2O)n1` (stereo not shown) [I.5-4] is “++++ (inhibition≥90%)”; for `CCc1nsc(N2C(=O)C(C)=C(Br)C2O)n1` (stereo not shown) [I.6-3] it is “++++ (inhibition≥90%)”; for `CCCc1nsc(N2C(=O)C(C)=C(Br)C2O)n1` (stereo not shown) [I.6-4] it is “++++ (inhibition≥90%)”.
As for `CC1=C(Br)C(O)N(c2nc(C3CC3)ns2)C1=O` (stereo not shown) [I.6-11], the “Effect (inhibition of PS II activity)” value on photosystem II (PS II) is listed as “++++ (inhibition≥90%)”.
On to `O=C1C(Cl)=C(C2CCCCC2)C(O)N1c1nc(C2CC2)ns1` (stereo not shown) [I.9-11], for which the “Effect (inhibition of PS II activity)” value on photosystem II (PS II) was “++ (70%>inhibition≥50%)”.
Consider `CC(C)c1nsc(N2C(=O)C(C3CCCCC3)=C(Cl)C2O)n1` (stereo not shown) [I.10-5], for which, at photosystem II (PS II), the “Effect (inhibition of PS II activity)” value is “+++ (90%≥inhibition≥70%)”.
The same measure, in the same setting: then `CCc1nsc(N2C(=O)N(C)CC2O)n1` (stereo not shown) [I.13-3], with “+++ (90%≥inhibition≥70%)”; and `CN1CC(O)N(c2nc(C(C)(C)C)ns2)C1=O` (stereo not shown) [I.13-288], with “++ (70%>inhibition≥50%)”.
